A word on the Tmax: it is the time at which the peak concentration occurs. A word on the half-life: it is the time needed for the level to fall by half in the phase considered.

For data set [1] the following is noted: cited from earlier work.
In data set [2] the test system is CYP enzymes or transporters. To be noted: in vitro; cited from earlier work.
For data set [3] the following is noted: cited from earlier work. The source holds these as a separate data set.
Data set [4] is classed as in vivo, human (healthy subjects). To be noted: human, plasma, oral.
The conditions of data set [5]: primary circulating metabolites of ertugliflozin; cited from earlier work.
The conditions of data set [6]: cited from earlier work. This is another data set of the same source.
[7] abbreviates: oral radioactive ertugliflozin dose.

Take `CCOc1ccc(Cc2cc([C@]34OC[C@](CO)(O3)[C@@H](O)[C@H](O)[C@H]4O)ccc2Cl)cc1` [Ertugliflozin]: the “Unmetabolized drug recovered in urine, % of the administered dose” value in data set [1] is listed as 1.5%. Also, the AUC dose proportionality result in data set [1] (dose range of 0.5 to 300 mg) is listed as “increases in a dose‐proportional manner”. In data set [1] (fed state, oral), the “Median time to maximum plasma concentration (Tmax)” value is approximately 2 h. Besides, in data set [1] (setting [7]), the “Excretion of radioactivity in feces, % of the dose” value is 40.9% and the “Excretion of radioactivity in urine, % of the dose” value is given as 50.2%. Besides, in data set [2], the “Inhibition or induction of CYP enzymes or transporters” value is reported as “do not inhibit or induce CYP enzymes or transporters”. The “Biopharmaceutical Classification System class” value in data set [3] is “class 1”. Further, in data set [4], the Tmax is approximately 1 h and the half-life lay in the range of 11.2 to 13.8 h.
In the case of `CCOc1ccc(Cc2cc([C@]34OC[C@](CO)(O3)[C@@H](O)[C@H](O[C@@H]3O[C@H](C(=O)O)[C@@H](O)[C@H](O)[C@H]3O)[C@H]4O)ccc2Cl)cc1` [M5c, 3‐O‐β glucuronide], the Pharmacological activity entry in data set [5] was “pharmacologically inactive”.
Consider `N[C@@H](CC(=O)N1CCn2c(nnc2C(F)(F)F)C1)Cc1cc(F)c(F)cc1F` [Sitagliptin], for which the “Biopharmaceutical Classification System class” value in data set [3] was “class 1”. In addition, in data set [4], the time of peak concentration (Tmax) was in the range of 2.2 to 4 h and the half-life is 11.2 to 12.5 h. In addition, in data set [6], the Excreted in feces is 13%, the “Excreted mostly unmetabolized in urine” value is reported as 87% and the Renal clearance entry was “approximately 388 mL/min”. Also, the AUC dose dependence result in data set [6] (healthy subjects) was “increases in an approximately dose‐dependent manner”.

The values are drawn from paper PMC6851892 (Clinical Pharmacology in Drug Development, 2019).
